Drawing on patent US7482455B2, “Chemical compounds” (SmithKline Beecham Corporation, priority 2002, dated 2009), this text covers IC50 for 9 compounds.

In the experiment the target is T1, hYAK3 (Homo sapiens, UniProt O43781).
T1 construct: containing amino acid residues 124-526 of human YAK3; GST (N); His6 (C); made in house; host or cells: baculovirus expression system in Sf9 cells
T1 sequence (O43781 124-526): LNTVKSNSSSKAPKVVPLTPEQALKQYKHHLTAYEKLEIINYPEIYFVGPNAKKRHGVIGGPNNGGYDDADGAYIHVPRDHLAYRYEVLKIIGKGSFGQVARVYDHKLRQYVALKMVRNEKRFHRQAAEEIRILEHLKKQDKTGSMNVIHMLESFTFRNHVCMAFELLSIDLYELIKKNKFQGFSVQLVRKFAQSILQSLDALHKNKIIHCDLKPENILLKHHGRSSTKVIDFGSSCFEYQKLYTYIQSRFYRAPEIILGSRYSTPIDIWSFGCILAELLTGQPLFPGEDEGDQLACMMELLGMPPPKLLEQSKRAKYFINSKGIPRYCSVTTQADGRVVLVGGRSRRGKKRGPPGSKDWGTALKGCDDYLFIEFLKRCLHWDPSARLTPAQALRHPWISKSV
Kind of experiment: YAK3 Scintillation Proximity Assay using Ser164 of myelin basic protein as the phosphoacceptor (kinase assay of purified hYAK3). Particulars: purified GST-hYak3-His6 (residues 124-526), 4 nM; 0.001 mM ATP; 4 μM Ser164 peptide; 2 hours at room temperature; compounds 50 μM to 0.5 nM. The class given is biochemical. On the procedure: YAK3 Scintillation Proximity Assays Using Ser164 of Myelin Basic Protein as the Phosphoacceptor
Source of Ser164 Substrate Peptide:
The biotinylated Ser164, S164A peptide(Biotinyl -LGGRDSRAGS*PMARR—OH), sequence derived from the C-terminus of bovine myelin basic protein (MBP) with Ser162 substituted as Ala162, was purchased from California Peptide Research Inc. (Napa, Calif.), and its purity was determined by HPLC. Phosphorylation occurs at position 164 (marked S* above). The calculated molecular mass of the peptide was 2166 dalton. Solid sample was dissolved at 10 mM in DMSO, aliquoted, and stored at −20° C. until use.
hYAK3: Glutathione-S-Transferase (GST)-hYak3-His6 containing amino acid residues 124-526 of human YAK3 was purified from baculovirus expression system in Sf9 cells using Glutathione Sepharose 4B column chromatography followed by Ni-NTA-Agarose column chromatography. Purity greater than 65% typically was achieved. Samples, in 50 mM Tris, 150 mM NaCl, 10% glycerol, 0.1% Triton, 250 mM imidazole, 10 mM β-mercapto ethanol, pH 8.0.—
were stored at −80° C. until use.
Kinase Assay of Purified hYAK3:
Assays were performed in 96 well (Costar, Catalog No. 3789) or 384 well plates (Costar, Catalog No. 3705). Reaction (in 20, 25, or 40 μl volume) mix contained in final concentrations 25 mM Hepes buffer, pH 7.4; 10 mM MgCl2; 10 mM β-mercapto ethanol; 0.0025% Tween-20; 0.001 mM ATP, 0.1 ? Ci of [ ? -^33P]ATP; purified hYAK3 (7-14 ng/assay; 4 nM final); and 4 μM Ser164 peptide. Compounds, titrated in DMSO, were evaluated at concentrations ranging from 50 μM to 0.5 nM. […] Reactions were incubated for 2 hours at room temperature and were stopped by a 75 ul addition of […] Streptavidin Scintillation Proximity beads (Amersham Pharmacia Biotech, Catalog No. RPNQ 0007) in PBS, pH 7.4, 10 mM EDTA, 0.1% Triton X-100, 1 mM ATP. Under the assay conditions defined above, the Km(apparent) for ATP was determined to be 7.2+/−2.4 μM. Assay results are depicted in Table 1.
On the technique in general: Scintillation proximity formats need no separation of bound from free tracer.

Where a name gives a salt, the structure may show the parent alone.

By IC50 is commonly meant the concentration that gives 50% inhibition. In turn, `COc1ccc2cc(C(=O)O)c(NCCCNC(=O)OC(C)(C)C)nc2c1` [Example 1, 2-(3-tert-butoxycarbonylamino-propylamino)-7-methoxy-quinoline-3-carboxylic acid] returned a 50% inhibitory concentration (IC50) of 1000 to 10000 nM.

On to `COc1ccc2cc(C(=O)O)c(NCCCN)nc2c1` [Example 2, 2-(3-amino-propylamino)-7-methoxy-quinoline-3-carboxylic acid], for which the IC50 is less than 1000 nM.

Compound `COc1ccc2cc(C(=O)O)c(NCc3ccccc3)nc2c1` [Example 3, 2-benzylamino-7-methoxy-quinoline-3-carboxylic acid] showed an IC50 of less than 1000 nM.

`COc1ccc2cc(C(=O)O)c(NCCc3ccccc3)nc2c1` [Example 4, 7-methoxy-2-phenethylamino-quinoline-3-carboxylic acid] gave a half-maximal inhibitory concentration (IC50) of less than 1000 nM.

In turn, `COc1ccc2cc(C(=O)O)c(NCCc3ccncc3)nc2c1` [Example 5, 7-methoxy-2-(2-pyridin-4-yl-ethylamino)-quinoline-3-carboxylic acid] registered an IC50 of less than 1000 nM.

Compound `COc1ccc2cc(C(=O)O)c(NCCN(C)C)nc2c1` [Example 6, 2-(2-dimethylamino-ethylamino)-7-methoxy-quinoline-3-carboxylic acid hydrochloride] returned a 50% inhibitory concentration (IC50) of less than 1000 nM.

The compound `COc1ccc2cc(C(=O)O)c(NC3Cc4ccccc4C3)nc2c1` [Example 7, 2-(indan-2-ylamino)-7-methoxy-quinoline-3-carboxylic acid] came in with an IC50 of less than 1000 nM.

`COc1ccc2cc(C(=O)O)c(NCCCN3CCOCC3)nc2c1` [Example 8, 7-methoxy-2-(3-morpholin-4-yl-propylamino)-quinoline-3-carboxylic acid] gave a half-inhibitory concentration (IC50) of 1000 to 10000 nM.

Turning to `O=C(O)c1cc2ccc(O)cc2nc1Nc1ccccc1Cl` [Example 12, 2-(2-Chloro-phenylamino)-7-hydroxy-quinoline-3-carboxylic acid], the IC50 is less than 1000 nM.
